Measurements reported in publication PMC8389037, “Design, Synthesis and Antifungal Activity of Stapled Aurein1.2 Peptides” (Antibiotics, 2021).
Converted amounts (≈) assume the structure as drawn. Where a SMILES comes first, the peptide text is derived from it. Bridges are numbered along the chain shown (N, C = ends). [ ]: non-standard residue; d: D form. S5 = C=CCCC[C@](C)(N)C(=O)O

Legend:
Assay in all cases: microbe, parasite or virus in culture
[1] = system: C. albicans 901; conditions: for Minimum inhibitory concentration (MIC): 901, 48 h
Procedure: (§1) The in vitro antifungal activities of the target peptides were evaluated according to protocols from the CLSI. The broth microdilution method was used to determine the minimum inhibitory concentration (MIC) of the target peptides in 96-well plates. Fluconazole was used as a reference drug.
(§2) Clinical isolates of C. albicans SC5314, 901, 904, C. tropicalis ATCC20026 and clinical isolate 895, C. glabrata ATCC1182 and clinical isolate 896, C. krusei ATCC2340, and C. parapsilosis ATCC22010 are from the collection library in the Drug Discovery and Development Center, Naval Medical University, Shanghai, China. C. auris clinical isolates are provided by Linqi Wang (Institute of Microbiology, Chinese Academy of Sciences) and Changbin Chen (Institut Pasteur of Shanghai, Chinese Academy of Sciences). All strains were cultured in YPD (1% yeast extract, 2% peptone, and 2% glucose) liquid medium overnight at 30 °C with shaking at 220 rpm.
(§3) The MICs of chemicals against all strains were determined by the micro broth dilution method according to the Clinical and Laboratory Standards Institute (Wayne PA, Reference Method for Broth Dilution Antifungal Susceptibility Testing of yeasts, approved Standard M27-A3, 3 rd ed; Clinical and Laboratory Standards Institute (CLSI): USA, 2008). The initial concentration of fungal suspension in RPMI 1640 medium was 3–5 × 10^3 colonies forming unit (CFU)/mL, which was added to 96-well plates. Peptides were prepared in dimethyl sulfoxide (DMSO) with an initial stored concentration of 6.4 mg/mL. Serial dilutions were made based on the CLSI M27 guide to obtaining the final concentrations ranging from 0.125 to 64 μg/mL for fluconazole and 0.25 to 128 μg/mL for peptides […]. The plates were incubated at 30 °C for 48 h. Optical density was measured at 630 nm, and background optical densities were subtracted from that of each well. The definition of MIC is the lowest concentration at which 80% of tested strains cannot grow.

[2] = system: C. albicans 904; conditions: for Minimum inhibitory concentration (MIC): 904, 48 h
Procedure: as §1, §2, §3

[3] = system: C. albicans SC5314; conditions: SC5314, 48 h
Procedure: as §1, §2, §3

[4] = system: C. auris 918; conditions: for Minimum inhibitory concentration (MIC): 918, 48 h
Procedure: as §1, §2, §3

[5] = system: C. auris 919; conditions: for Minimum inhibitory concentration (MIC): 919, 48 h
Procedure: as §1, §2, §3

[6] = system: C. glabrata 896; conditions: for Minimum inhibitory concentration (MIC): 896, 48 h
Procedure: as §1, §2, §3

[7] = system: C. glabrata ATCC 1182; conditions: for Minimum inhibitory concentration (MIC): ATCC 1182, 48 h
Procedure: as §1, §2, §3

[8] = system: C. krusei ATCC 2340; conditions: for Minimum inhibitory concentration (MIC): ATCC 2340, 48 h
Procedure: as §1, §2, §3

[9] = system: C. parapsilosis ATCC 22010; conditions: for Minimum inhibitory concentration (MIC): ATCC 22010, 48 h
Procedure: as §1, §2, §3

[10] = system: C. tropicalis 895; conditions: for Minimum inhibitory concentration (MIC): 895, 48 h
Procedure: as §1, §2, §3

[11] = system: C. tropicalis ATCC 20026; conditions: for Minimum inhibitory concentration (MIC): ATCC 20026, 48 h
Procedure: as §1, §2, §3

[12] = Candidozyma auris, 48 h, read-out: Minimum inhibitory concentration (MIC)

SMILES	Minimum inhibitory concentration (MIC) [1] [µg/mL]	Minimum inhibitory concentration (MIC) [2] [µg/mL]	Minimum inhibitory concentration (MIC) [3] [µg/mL]	Minimum inhibitory concentration (MIC) [4] [µg/mL]	Minimum inhibitory concentration (MIC) [5] [µg/mL]	Minimum inhibitory concentration (MIC) [6] [µg/mL]	Minimum inhibitory concentration (MIC) [7] [µg/mL]	Minimum inhibitory concentration (MIC) [8] [µg/mL]	Minimum inhibitory concentration (MIC) [9] [µg/mL]	Minimum inhibitory concentration (MIC) [10] [µg/mL]	Minimum inhibitory concentration (MIC) [11] [µg/mL]	further results
CC[C@H](C)[C@@H]1NC(=O)[C@H](CCCCN)NC(=O)[C@@](C)(NC(=O)[C@@H](NC(=O)[C@@H](NC(=O)[C@H](CC(=O)O)NC(=O)[C@H](Cc2ccccc2)NC(=O)[C@H](CC(C)C)NC(=O)CNC(C)=O)[C@@H](C)CC)[C@@H](C)CC)CCCC=CCCC[C@@](C)(C(=O)N[C@@H](CO)C(=O)N[C@@H](Cc2ccccc2)C(N)=O)NC(=O)[C@H](C)NC1=O [Sau-7] (Ac-GLFDII[S5]KIA[S5]SF-NH2; staple 7-11)	>128	>128	>64	>128	>128	>128	>128	>128	>128	>128	>128	–
CC[C@H](C)[C@H](NC(=O)[C@H](CC(=O)O)NC(=O)[C@H](Cc1ccccc1)NC(=O)[C@H](CC(C)C)NC(=O)CNC(C)=O)C(=O)N[C@H](C(=O)N[C@@H](CCCCN)C(=O)N[C@@H](CCCCN)C(=O)N[C@@]1(C)CCCC=CCCC[C@@](C)(C(N)=O)NC(=O)[C@H](CO)NC(=O)[C@H](CCC(=O)O)NC(=O)[C@H](C)NC1=O)[C@@H](C)CC [Sau-9] (Ac-GLFDIIKK[S5]AES[S5]-NH2; staple 9-13)	>128	>128	>64	>128	>128	>128	>128	>128	>128	32 (≈ 21.2 µM)	>128	–
CC[C@H](C)[C@H](NC(=O)[C@H](CCCCN)NC(=O)[C@H](CCCCN)NC(=O)[C@]1(C)CCCC=CCCC[C@](C)(NC(=O)CNC(C)=O)C(=O)N[C@@H](Cc2ccccc2)C(=O)N[C@@H](CC(=O)O)C(=O)N[C@@H]([C@@H](C)CC)C(=O)N1)C(=O)N[C@@H](C)C(=O)N[C@@H](CCC(=O)O)C(=O)N[C@@H](CO)C(=O)N[C@@H](Cc1ccccc1)C(N)=O [Sau-2] (Ac-G[S5]FDI[S5]KKIAESF-NH2; staple 2-6)	>128	>128	>64	>128	>128	128 (≈ 82.8 µM)	>128	>128	>128	16 (≈ 10.4 µM)	>128	–
CC[C@H](C)[C@H](NC(=O)[C@H](CC(=O)O)NC(=O)[C@H](Cc1ccccc1)NC(=O)[C@H](CC(C)C)NC(=O)CNC(C)=O)C(=O)N[C@@]1(C)CCCC=CCCC[C@@](C)(C(=O)N[C@@H](CCC(=O)O)C(=O)N[C@@H](CO)C(=O)N[C@@H](Cc2ccccc2)C(N)=O)NC(=O)[C@H]([C@@H](C)CC)NC(=O)[C@H](CCCCN)NC(=O)[C@H](CCCCN)NC1=O [Sau-6] (Ac-GLFDI[S5]KKI[S5]ESF-NH2; staple 6-10)	>128	>128	>64	>128	>128	>128	>128	>128	>128	>128	>128	–
CC[C@H](C)[C@H](NC(=O)[C@H](CCCCN)NC(=O)[C@H](CCCCN)NC(=O)[C@@H](NC(=O)[C@]1(C)CCCC=CCCC[C@](C)(NC(C)=O)C(=O)N[C@@H](CC(C)C)C(=O)N[C@@H](Cc2ccccc2)C(=O)N[C@@H](CC(=O)O)C(=O)N1)[C@@H](C)CC)C(=O)N[C@@H](C)C(=O)N[C@@H](CCC(=O)O)C(=O)N[C@@H](CO)C(=O)N[C@@H](Cc1ccccc1)C(N)=O [Sau-1] (Ac-[S5]LFD[S5]IKKIAESF-NH2; staple 1-5)	32 (≈ 20 µM)	>128	>64	>128	>128	>128	>128	>128	128 (≈ 79.9 µM)	>128	>128	–
CC[C@H](C)[C@H](NC(=O)[C@H](CCCCN)NC(=O)[C@]1(C)CCCC=CCCC[C@](C)(NC(=O)[C@H](CC(C)C)NC(=O)CNC(C)=O)C(=O)N[C@@H](CC(=O)O)C(=O)N[C@@H]([C@@H](C)CC)C(=O)N[C@@H]([C@@H](C)CC)C(=O)N1)C(=O)N[C@@H](C)C(=O)N[C@@H](CCC(=O)O)C(=O)N[C@@H](CO)C(=O)N[C@@H](Cc1ccccc1)C(N)=O [Sau-3] (Ac-GL[S5]DII[S5]KIAESF-NH2; staple 3-7)	>128	>128	>64	>128	>128	>128	>128	>128	>128	>128	>128	–
OC(Cn1cncn1)(Cn1cncn1)c1ccc(F)cc1F [Fluconazole, reference compound]	–	–	–	–	–	–	–	–	–	–	–	MIC ([1]; Candida albicans, 901, 48 h, read-out: Minimum inhibitory concentration (MIC)): > 64 µg/mL; MIC ([2]; Candida albicans, 904, 48 h, read-out: Minimum inhibitory concentration (MIC)): > 64 µg/mL; MIC ([3]; Candida albicans, read-out: Minimum inhibitory concentration (MIC)): 0.5 µg/mL (≈ 1.63 µM); MIC [4, 12]: > 128 µg/mL; MIC [5, 12]: > 128 µg/mL; MIC ([6]; Nakaseomyces glabratus, 48 h, read-out: Minimum inhibitory concentration (MIC)): > 128 µg/mL; MIC ([7]; Nakaseomyces glabratus, ATCC1182, 48 h, read-out: Minimum inhibitory concentration (MIC)): 2 µg/mL (≈ 6.53 µM); MIC ([8]; Pichia kudriavzevii, ATCC2340, 48 h, read-out: Minimum inhibitory concentration (MIC)): 64 µg/mL (≈ 209 µM); MIC ([9]; Lodderomyces parapsilosis, ATCC22010, 48 h, read-out: Minimum inhibitory concentration (MIC)): 1 µg/mL (≈ 3.27 µM); MIC ([10]; Candida tropicalis, 895, 48 h, read-out: Minimum inhibitory concentration (MIC)): > 128 µg/mL; MIC ([11]; Candida tropicalis, ATCC20026, 48 h, read-out: Minimum inhibitory concentration (MIC)): 1 µg/mL (≈ 3.27 µM)
CC[C@H](C)[C@H](NC(=O)[C@H](CC(=O)O)NC(=O)[C@H](Cc1ccccc1)NC(=O)[C@H](CC(C)C)NC(=O)CNC(C)=O)C(=O)N[C@H](C(=O)N[C@@H](CCCCN)C(=O)N[C@@]1(C)CCCC=CCCC[C@@](C)(C(=O)N[C@@H](Cc2ccccc2)C(N)=O)NC(=O)[C@H](CCC(=O)O)NC(=O)[C@H](C)NC(=O)[C@H]([C@@H](C)CC)NC1=O)[C@@H](C)CC [Sau-8] (Ac-GLFDIIK[S5]IAE[S5]F-NH2; staple 8-12)	>128	>128	>64	>128	>128	>128	>128	>128	>128	>128	>128	–
